From ChEMBL document CHEMBL5335804, “Design, synthesis and biological evaluation of 2-phenylaminopyrimidine derivatives as EGFR inhibitors” (Bioorg Med Chem Lett, 2024)

Legend:
[1] = Cytotoxicity against human NCI-H838 cells harboring wild type EGFR at 500 nM; format: toxicity, cell-based; conditions: read-out: INH
[2] = system: Epidermal growth factor receptor (Homo sapiens), P00533 [L858R,T790M,C797S]; conditions: dose 500.0 nM
BaF3 = experiment: cells; conditions: Mus musculus

Sequence of Epidermal growth factor receptor (Homo sapiens), P00533 [L858R,T790M,C797S] (P00533 whole entry T790M/C797S/L858R): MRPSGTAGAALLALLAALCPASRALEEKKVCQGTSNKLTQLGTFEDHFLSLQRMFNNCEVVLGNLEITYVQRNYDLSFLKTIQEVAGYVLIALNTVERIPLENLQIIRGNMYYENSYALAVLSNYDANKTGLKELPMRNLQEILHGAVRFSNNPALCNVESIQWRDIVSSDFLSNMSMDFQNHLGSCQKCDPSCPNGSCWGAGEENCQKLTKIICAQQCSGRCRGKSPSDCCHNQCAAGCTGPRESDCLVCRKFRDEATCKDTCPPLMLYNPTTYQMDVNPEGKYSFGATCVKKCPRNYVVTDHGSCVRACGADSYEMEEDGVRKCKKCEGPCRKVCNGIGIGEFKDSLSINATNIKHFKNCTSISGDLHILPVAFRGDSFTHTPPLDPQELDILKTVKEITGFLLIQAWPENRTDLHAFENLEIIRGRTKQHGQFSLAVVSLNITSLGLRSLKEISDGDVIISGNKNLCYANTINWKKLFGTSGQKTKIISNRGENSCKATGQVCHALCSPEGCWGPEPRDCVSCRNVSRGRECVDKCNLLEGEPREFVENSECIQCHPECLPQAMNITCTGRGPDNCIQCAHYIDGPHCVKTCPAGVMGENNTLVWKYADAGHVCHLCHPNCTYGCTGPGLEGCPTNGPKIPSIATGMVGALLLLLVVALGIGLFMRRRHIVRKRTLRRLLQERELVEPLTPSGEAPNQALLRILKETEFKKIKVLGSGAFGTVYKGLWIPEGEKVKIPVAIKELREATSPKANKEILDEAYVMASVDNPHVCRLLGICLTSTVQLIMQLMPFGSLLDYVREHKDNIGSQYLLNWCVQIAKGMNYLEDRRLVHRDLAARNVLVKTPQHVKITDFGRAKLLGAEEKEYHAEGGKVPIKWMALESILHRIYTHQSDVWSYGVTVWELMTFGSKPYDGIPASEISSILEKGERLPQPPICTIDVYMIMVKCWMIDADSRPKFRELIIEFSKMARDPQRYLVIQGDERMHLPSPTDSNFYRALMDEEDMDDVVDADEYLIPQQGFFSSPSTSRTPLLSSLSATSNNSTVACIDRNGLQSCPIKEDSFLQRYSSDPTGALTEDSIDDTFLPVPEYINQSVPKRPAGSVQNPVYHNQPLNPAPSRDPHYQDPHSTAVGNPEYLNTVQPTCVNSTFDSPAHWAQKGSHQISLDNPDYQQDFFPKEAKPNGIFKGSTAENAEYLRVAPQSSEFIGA

| SMILES | inhibition [2] [%] | IC50 (BaF3) [nM] | cytotoxicity at 0.5 µM [1] [%] |
| --- | --- | --- | --- |
| COc1cc(N2CCC(N3CCN(C)CC3)CC2)c(C)cc1Nc1nccc(-n2cc(CN[C@@H](C)CO)c(-c3ccccc3)n2)n1 | – | 106 | 14.9 |
| COc1cc(N2CCC(N3CCN(C)CC3)CC2)c(C)cc1Nc1nccc(-n2cc(CNC(C)CO)c(-c3ccccc3)n2)n1 (stereo not drawn) | – | 143 | 25.6 |
| COc1cc(N2CCC(N3CCN(C)CC3)CC2)c(C)cc1Nc1nccc(-n2cc(CNCCO)c(-c3ccccc3)n2)n1 | – | 485 | 33.2 |
| COc1cc(N2CCC(N3CCN(C)CC3)CC2)c(C)cc1Nc1nccc(-n2cc(CNC(CO)C(C)C)c(-c3ccccc3)n2)n1 (stereo not drawn) | – | 292 | 31.8 |

Second part, led by results:

| inhibition [2] [%] | IC50 (BaF3) [nM] | SMILES | cytotoxicity at 0.5 µM [1] [%] |
| --- | --- | --- | --- |
| 84.6 | 542 | COc1cc(N2CCC(N3CCN(C)CC3)CC2)ccc1Nc1ncc(Cl)c(Nc2ccccc2P(C)(C)=O)n1 [BRIGATINIB] | 92.4 |
| – | 260 | COc1cc(N2CCC(N3CCN(C)CC3)CC2)c(C)cc1Nc1nccc(-n2cc(CN[C@H](C)CO)c(-c3ccccc3)n2)n1 | 17.1 |
